Experimental data taken from article PMC10764553, “Characterization of a thermophilic and glucose-tolerant GH1 β-glucosidase from hot springs and its prospective application in corn stover degradation” (Frontiers in Microbiology, 2023).

Assays:
LQBG8 [1] = system: T1, LQBG8; assay: p-nitrophenol release at […] nm; format: biochemical; details: optimal temperature (70 °C); pH not stated for this assay
T1 construct: differs from Tepidiforma bonchosmolovskayae WP158066159.1 only at residue 48 (Ser in LQBG8, Gly there)

LQBG8 [2] = system: T1, LQBG8; assay: glucose release (glucose oxidase-peroxidase), Lineweaver-Burk; format: biochemical; details: 70 °C, pH 5.6; cellobiose 0-20 mg/mL (Km lies above the tested range)

| SMILES | Km (LQBG8 [1]) | Km (LQBG8 [2]) |
| --- | --- | --- |
| O=[N+]([O-])c1ccc(O[C@@H]2O[C@H](CO)[C@@H](O)[C@H](O)[C@H]2O)cc1 [p-nitrophenyl-β-D-glucopyranoside] | 260 ± 10 µM |  |
| OC[C@H]1O[C@@H](O[C@H]2[C@H](O)[C@@H](O)C(O)O[C@@H]2CO)[C@H](O)[C@@H](O)[C@@H]1O (some centres unmarked) [cellobiose] |  | 28 ± 1.9 mg/mL |
